Results reported in US20210380606A1, “5-AZAINDAZOLE DERIVATIVES AS ADENOSINE RECEPTOR ANTAGONISTS” (Merck Patent GmbH, priority 2018, published 2021).
Read-outs that look alike come from different tables or passages of the source.

How the values were obtained:
human A2B receptors = target: T1, human A2B receptors (Homo sapiens, UniProt P29275); test: Functional human A2B receptor activity, recombinant HEK293 cells, cAMP (HTRF); assay type: cell-based; settings: read-out: A2B (Category)
T1 construct: expressed in transfected cells; host or cells: HEK293
T1 sequence (P29275 1-332): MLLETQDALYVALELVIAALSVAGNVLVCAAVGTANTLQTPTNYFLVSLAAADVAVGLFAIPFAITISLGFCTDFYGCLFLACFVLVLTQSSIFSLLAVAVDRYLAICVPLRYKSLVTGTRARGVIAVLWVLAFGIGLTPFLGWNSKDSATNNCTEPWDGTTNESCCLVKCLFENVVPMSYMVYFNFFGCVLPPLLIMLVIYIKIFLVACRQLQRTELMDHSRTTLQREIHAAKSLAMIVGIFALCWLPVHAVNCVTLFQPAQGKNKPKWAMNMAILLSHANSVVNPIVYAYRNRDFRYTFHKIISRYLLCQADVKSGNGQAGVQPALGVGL
Procedure, shortened: (§1)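 Adenosine receptor activity tracked via second-messenger cAMP; incubation 15 min, then HTRF detection of cellular cAMP.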

human A2A receptors = target: T2, human A2A receptors (Homo sapiens, UniProt P29274); test: Functional human A2A receptor activity, recombinant HEK293 cells, cAMP (HTRF); assay type: cell-based; settings: read-out: A2A (Category)
T2 construct: expressed in transfected cells; host or cells: HEK293
Procedure, shortened: as §1

[1] = recombinant HEK293 cells expressing human A2B receptor, agonist NECA, cAMP HTRF, 15 min incubation
[2] = recombinant HEK293 cells expressing human A2A receptor, agonist NECA, cAMP HTRF, 15 min incubation

T2 sequence (P29274 whole entry): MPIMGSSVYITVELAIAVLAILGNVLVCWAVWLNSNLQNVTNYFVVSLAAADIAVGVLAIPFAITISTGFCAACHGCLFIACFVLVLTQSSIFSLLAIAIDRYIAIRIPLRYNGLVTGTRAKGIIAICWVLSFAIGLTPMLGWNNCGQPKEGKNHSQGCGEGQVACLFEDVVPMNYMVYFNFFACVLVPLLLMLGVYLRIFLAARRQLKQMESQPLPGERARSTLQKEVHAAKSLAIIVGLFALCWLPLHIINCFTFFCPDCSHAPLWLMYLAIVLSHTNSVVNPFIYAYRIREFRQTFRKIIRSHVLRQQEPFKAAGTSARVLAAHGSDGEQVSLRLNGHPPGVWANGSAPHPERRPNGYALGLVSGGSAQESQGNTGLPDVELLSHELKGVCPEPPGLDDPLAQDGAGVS

| SMILES | IC50 (human A2B receptors) [nM] | IC50 (human A2A receptors) [nM] | IC50 (human A2B receptors; [1]) [nM] | IC50 (human A2A receptors; [2]) [nM] |
| --- | --- | --- | --- | --- |
| O=C(c1cc2c(cn1)c(-c1cnc3cnccn13)nn2CC(F)(F)F)N1CCCCCC1 [Compound 56, Azepan-1-yl-[3-imidazo[1,2-a]pyrazin-3-yl-1-(2,2,2-trifluoro-ethyl)-1H-pyrazolo[4,3-c]pyridin-6-yl]-methanone] | < 1000 | < 100 |  |  |
| C[C@]1(O)[C@@H]2CC[C@H]1CN(C(=O)c1cc3c(cn1)c(-c1coc4ccccc14)nn3CC(F)(F)F)C2 [Compound 212, [3-Benzofuran-3-yl-1-(2,2,2-trifluoro-ethyl)-1H-pyrazolo[4,3-c]pyridin-6-yl]-(8-endo-hydroxy-8-exo-methyl-3-aza-bicyclo[3.2.1]oct-3-yl)-methanone] | < 1000 | < 100 |  |  |
| O=C(c1cc2c(cn1)c(-c1cnc3c(F)cc(F)cn13)nn2CC(F)(F)F)N1CCCC(F)(F)C1 [Compound 159, [3-(6,8-Difluoro-imidazo[1,2-a]pyridin-3-yl)-1-(2,2,2-trifluoro-ethyl)-1H-pyrazolo[4,3-c]pyridin-6-yl]-(3,3-difluoro-piperidin-1-yl)-methanone] | < 1000 | < 100 |  |  |
| CS(=O)(=O)Cn1nc(-c2coc3ccccc23)c2cnc(C(=O)N3CCC(F)(F)CC3)cc21 [Compound 33, (3-Benzofuran-3-yl-1-methanesulfonylmethyl-1H-pyrazolo[4,3-c]pyridin-6-yl)-(4,4-difluoro-piperidin-1-yl)-methanone] | < 1000 | < 100 |  |  |
| O=C(c1cc2c(cn1)c(-c1cnc3c(F)cc(F)cn13)nn2CC(F)(F)F)N1C2CCC1CC(O)C2 (stereo not drawn) [Compound 171, [3-(6,8-Difluoro-imidazo[1,2-a]pyridin-3-yl)-1-(2,2,2-trifluoro-ethyl)-1H-pyrazolo[4,3-c]pyridin-6-yl]-(3-exo-hydroxy-8-aza-bicyclo[3.2.1]oct-8-yl)-methanone] |  |  | < 1000 | < 100 |
| O=C(c1cc2c(cn1)c(-c1cnc3c(F)cc(F)cn13)nn2CC(F)(F)F)N1CC2CCC(C1)C2O (stereo not drawn) [Compound 187, [3-(6,8-Difluoro-imidazo[1,2-a]pyridin-3-yl)-1-(2,2,2-trifluoro-ethyl)-1H-pyrazolo[4,3-c]pyridin-6-yl]-(8-endo-hydroxy-3-aza-bicyclo[3.2.1]oct-3-yl)-methanone] |  |  | < 1000 | < 100 |
| O=C(c1cc2c(cn1)c(-c1coc3ccccc13)nn2CC(F)(F)F)N1CCCC(F)(F)C1 [Compound 226, [3-(benzofuran-3-yl)-1-(2,2,2-trifluoroethyl)pyrazolo[4,3-c]pyridin-6-yl]-(3,3-difluoro-1-piperidyl)methanone] | < 1000 | < 100 |  |  |
| O=C(c1cc2c(cn1)c(-c1cnc3c(F)cc(F)cn13)nn2CC(F)(F)F)N1CCC(CO)CC1 [Compound 165, [3-(6,8-Difluoro-imidazo[1,2-a]pyridin-3-yl)-1-(2,2,2-trifluoro-ethyl)-1H-pyrazolo[4,3-c]pyridin-6-yl]-(4-hydroxymethyl-piperidin-1-yl)-methanone] | < 1000 | < 100 |  |  |
| O=C(c1cc2c(cn1)c(-c1coc3ccccc13)nn2CC(F)(F)F)N1CCCC(O)C1 (centres unmarked) [Compound 227, [3-Benzofuran-3-yl-1-(2,2,2-trifluoro-ethyl)-1H-pyrazolo[4,3-c]pyridin-6-yl]-(3-hydroxy-piperidin-1-yl)-methanone] | < 100 | < 100 |  |  |
| O=C(c1cc2c(cn1)c(-c1coc3ccc(F)cc13)nn2CC(F)(F)F)N1CC2CCC(C1)O2 [Compound 127, [3-(5-fluorobenzofuran-3-yl)-1-(2,2,2-trifluoroethyl)pyrazolo[4,3-c]pyridin-6-yl]-(8-oxa-3-azabicyclo[3.2.1]octan-3-yl)methanone] | < 100 | < 100 |  |  |
| O=C(c1cc2c(cn1)c(-c1coc3ccccc13)nn2CC(F)(F)F)N1CC2CCC(C1)C2O (stereo not drawn) [Compound 218, [3-Benzofuran-3-yl-1-(2,2,2-trifluoro-ethyl)-1H-pyrazolo[4,3-c]pyridin-6-yl]-(8-endo-hydroxy-3-aza-bicyclo[3.2.1]oct-3-yl)-methanone] | < 100 | < 100 |  |  |
| COCC1CCCN1C(=O)c1cc2c(cn1)c(-c1cnc3c(F)cc(F)cn13)nn2CC(F)(F)F (centres unmarked) [Compound 149, [3-(6,8-Difluoro-imidazo[1,2-a]pyridin-3-yl)-1-(2,2,2-trifluoro-ethyl)-1H-pyrazolo[4,3-c]pyridin-6-yl]-(2-methoxymethyl-pyrrolidin-1-yl)-methanone] | < 1000 | < 100 |  |  |
| CC1CC(O)CCN1C(=O)c1cc2c(cn1)c(-c1cnc3c(F)cc(F)cn13)nn2CC(F)(F)F (centres unmarked) [Compound 138, [3-(6,8-Difluoro-imidazo[1,2-a]pyridin-3-yl)-1-(2,2,2-trifluoro-ethyl)-1H-pyrazolo[4,3-c]pyridin-6-yl]-(4-hydroxy-2-methyl-piperidin-1-yl)-methanone] | < 100 | < 100 |  |  |
| Cn1nc(-c2cnc3ccc(F)cn23)c2cnc(C(=O)N3CCCCCC3)cc21 [Compound 41, Azepan-1-yl-[3-(6-fluoro-imidazo[1,2-a]pyridin-3-yl)-1-methyl-1H-pyrazolo[4,3-c]pyridin-6-yl]-methanone] | < 1000 | < 100 |  |  |

Further lines, with some results ahead:

| IC50 (human A2B receptors) [nM] | IC50 (human A2A receptors) [nM] | SMILES | IC50 (human A2B receptors; [1]) [nM] | IC50 (human A2A receptors; [2]) [nM] |
| --- | --- | --- | --- | --- |
| < 1000 | < 100 | CC(C)(C)OC(=O)NC1COCCN(C(=O)c2cc3c(cn2)c(-c2cnc4c(F)cc(F)cn24)nn3CC(F)(F)F)C1 (centres unmarked) [Compound 204, {4-[3-(6,8-Difluoro-imidazo[1,2-a]pyridin-3-yl)-1-(2,2,2-trifluoro-ethyl)-1H-pyrazolo[4,3-c]pyridine-6-carbonyl]-1,4-oxazepan-6-yl}-carbamic Acid Tert-Butyl Ester] |  |  |
| < 100 | < 100 | CS(=O)(=O)Cn1nc(-c2cnn3ccccc23)c2cnc(C(=O)N3CCCOCC3)cc21 [Compound 17, (1-Methanesulfonylmethyl-3-pyrazolo[1,5-a]pyridin-3-yl-1H-pyrazolo[4,3-c]pyridin-6-yl)-1,4-oxazepan-4-yl-methanone] |  |  |
| < 1000 | < 100 | O=C(c1cc2c(cn1)c(-c1cnc3c(F)cc(F)cn13)nn2CC1CC1)N1CCCOCC1 [Compound 9, [1-Cyclopropylmethyl-3-(6,8-difluoro-imidazo[1,2-a]pyridin-3-yl)-1H-pyrazolo[4,3-c]pyridin-6-yl]-1,4-oxazepan-4-yl-methanone] |  |  |
| < 1000 | < 100 | O=C(c1cc2c(cn1)c(-c1cnc3c(F)cc(F)cn13)nn2CC(F)(F)F)N1CCOCC(F)(F)C1 [Compound 185, [3-(6,8-Difluoro-imidazo[1,2-a]pyridin-3-yl)-1-(2,2,2-trifluoro-ethyl)-1H-pyrazolo[4,3-c]pyridin-6-yl]-(6,6-difluoro-1,4-oxazepan-4-yl)-methanone] |  |  |
| < 1000 | < 1000 | O=C(c1cc2c(cn1)c(-c1cnc3c(F)cc(F)cn13)nn2CC(F)(F)F)N1CCC(O)(C(F)(F)F)CC1 [Compound 148, [3-(6,8-Difluoro-imidazo[1,2-a]pyridin-3-yl)-1-(2,2,2-trifluoro-ethyl)-1H-pyrazolo[4,3-c]pyridin-6-yl]-(4-hydroxy-4-trifluoromethyl-piperidin-1-yl)-methanone] |  |  |
| < 1000 | < 100 | O=C(c1cc2c(cn1)c(-c1cnc3c(F)cc(F)cn13)nn2CC(F)(F)F)N1CCCS(=O)(=O)CC1 [Compound 180, [3-(6,8-Difluoro-imidazo[1,2-a]pyridin-3-yl)-1-(2,2,2-trifluoro-ethyl)-1H-pyrazolo[4,3-c]pyridin-6-yl]-1,4-thiazepan-1,1-dioxide-4-yl-methanone] |  |  |
| < 1000 | < 100 | COc1ccc2ncc(-c3nn(CC(F)(F)F)c4cc(C(=O)N5CCCCCC5)ncc34)n2c1 [Compound 59, Azepan-1-yl-[3-(6-methoxy-imidazo[1,2-a]pyridin-3-yl)-1-(2,2,2-trifluoro-ethyl)-1H-pyrazolo[4,3-c]pyridin-6-yl]-methanone] |  |  |
| < 1000 | < 100 | CC1(O)CCN(C(=O)c2cc3c(cn2)c(-c2cnn4ccccc24)nn3CC(F)(F)F)CC1 [Compound 117, (4-hydroxy-4-methyl-1-piperidyl)-[3-pyrazolo[1,5-a]pyridin-3-yl-1-(2,2,2-trifluoroethyl)pyrazolo[4,3-c]pyridin-6-yl]methanone] |  |  |
| < 1000 | < 100 | O=C(c1cc2c(cn1)c(-c1cnc3ccc(F)cn13)nn2CCF)N1CCCCCC1 [Compound 4, Azepan-1-yl-[1-(2-fluoro-ethyl)-3-(6-fluoro-imidazo[1,2-a]pyridin-3-yl)-1H-pyrazolo[4,3-c]pyridin-6-yl]-methenone] |  |  |
| < 1000 | < 100 | O=C(c1cc2c(cn1)c(-c1cnc3c(F)cc(F)cn13)nn2CC(F)(F)F)N1CCC(O)(c2cccnc2)CC1 [Compound 147, [3-(6,8-Difluoro-imidazo[1,2-a]pyridin-3-yl)-1-(2,2,2-trifluoro-ethyl)-1H-pyrazolo[4,3-c]pyridin-6-yl]-(4′-hydroxy-3′,4′,5′,6′-tetrahydro-2′H-[3,4′]bipyridinyl-1′-yl)-methanone] |  |  |
| < 100 | < 100 | O=C(c1cc2c(cn1)c(-c1cnc3c(F)cc(F)cn13)nn2CC(F)(F)F)N1CCCC(O)CC1 (centres unmarked) [Compound 177, [3-(6,8-Difluoro-imidazo[1,2-a]pyridin-3-yl)-1-(2,2,2-trifluoro-ethyl)-1H-pyrazolo[4,3-c]pyridin-6-yl]-(4-hydroxy-azepan-1-yl)-methanone] |  |  |
